Type in all cases: physicochemical
Series [1] is described as follows: Example 5: effect of inositol isomers on dissolution of L-leucine, LC/UV of filtrate. Conditions: for Leu dissolved at 30 seconds (g/16 oz.) / Leu dissolved at 60 seconds (% of total Leu) / Leu dissolved at 60 seconds (g/16 oz.): 3.50 g L-leucine with 0.1 g/16 oz. inositol isomer, water 21° C., 400 rpm. Here is the method: The LC/UV system used to perform the tests comprised the following: 1) Column: YMC ODS-AQ, 4.6 x 250 mm, 5 μm, Waters […]; 2) Mobile Phase: Milli-Q Plus water; 3) Flow Rate: 0.4 mL/minute; 4) Temperature: 40° C.; 5) Detection: UV at 192 nm; 6) Injection: 2 μL of filtrate; and 7) Run Time: 20 minutes.

Series [2] in a line: Example 3: aqueous dissolution of powdered branched-chain amino acid blend (first material) with varying myo-inositol, LC/UV of filtrate. The settings on record: for Dissolved amino acid (g per 16 oz.): 7.00 g BCAA blend, water 21° C., 400 rpm. As for the experimental part:
Example 3 evaluates the effect that varying the myo-inositol concentration has on the aqueous dissolution of branched-chain amino acids. Two branched-chain amino acid materials were tested. The first material tested was 7.00 grams of a powdered branched-chain amino acid blend comprising 50 wt. % leucine, 25 wt. % isoleucine, and 25 wt. % valine. The second material tested was 3.5 grams of powdered leucine. Each material was tested with varying levels of powdered myo-inositol, expressed as a percentage of 17.6 grams (e.g., a serving of powdered nutritional product). For example, 1% myo-inositol is 0.176 grams, 2% myo-inositol is 0.352 grams, and so forth. The branched-chain amino acid material and the specified amount of myo-inositol were added to 16 fluid ounces of Milli-Q Plus water at 21° C. and stirred at 400 rpm. After 30 seconds and 60 seconds of stirring, an aliquot was obtained and filtered through a 0.45 μm PTFE membrane (Pall Life Sciences, Acrodisc CR 25, P/N 4501), and the filtrate of the first material was tested for valine, isoleucine, and leucine using the LC/UV method described below, while the filtrate of the second material was tested for leucine using the same LC/UV method. The test results for the first material tested are shown in Table 3, while the test results for the second material tested are shown in Table 4.
(§1) The LC/UV system used to perform the tests comprised the following: 1) Column: YMC ODS-AQ, 4.6 x 250 mm, 5 μm, Waters P/N AQ12S052546WT; 2) Mobile Phase: Milli-Q Plus water; 3) Flow Rate: 0.4 mL/minute; 4) Temperature: 40° C.; 5) Detection: UV at 192 nm; 6) Injection: 2 μL of filtrate; and 7) Run Time: 20 minutes.

The nature of series [3]: Example 4: aqueous dissolution of branched-chain amino acids in a powdered nutritional product with varying myo-inositol, LC/UV of filtrate. Conditions: 17.6 g powdered nutritional product, water 21° C., 400 rpm. As for the experimental part:
as §1
Example 4 evaluates the effect that myo-inositol concentration has on the aqueous dissolution of branched-chain amino acids (valine, isoleucine, and leucine) in a powdered nutritional product. One serving (17.6 grams) of the powdered nutritional product contains 7.00 grams of a branched-chain amino acid blend comprising 50 wt. % leucine, 25 wt. % isoleucine, and 25 wt. % valine. A serving of the powdered nutritional product with a specified amount of myo-inositol was added to 16 fluid ounces of Milli-Q Plus water at 21° C. and stirred at 400 rpm. At each specified time point, an aliquot was obtained and filtered through a 0.45 μm PTFE membrane (Pall Life Sciences, Acrodisc CR 25, P/N 4501), and the filtrate was tested for valine, isoleucine, and leucine using the LC/UV method as described in Example 3.

The mark [4] stands for this setting: myo-inositol 0% of 17.6 g, 30 seconds.
Where [5] appears, read: myo-inositol 0% of 17.6 g, 60 seconds.
Where [6] appears, read: myo-inositol 1% of 17.6 g, 30 seconds.
Where [7] appears, read: myo-inositol 1% of 17.6 g, 60 seconds.
Where [8] appears, read: myo-inositol 2% of 17.6 g, 30 seconds.
Where [9] appears, read: myo-inositol 2% of 17.6 g, 60 seconds.
Setting [10] is: myo-inositol 4% of 17.6 g, 30 seconds.
Where [11] appears, read: myo-inositol 4% of 17.6 g, 60 seconds.
The mark [12] stands for this setting: myo-inositol 8% of 17.6 g, 30 seconds.
The mark [13] stands for this setting: myo-inositol 8% of 17.6 g, 60 seconds.

Take `OC1C(O)C(O)C(O)C(O)C1O` (stereo not drawn) [cis-inositol]: in series [1] (0.1 g isomer, 3.50 g L-leucine), the “enhancement of dissolution rate of L-leucine by inositol isomer” value is “most enhanced”. In series [1], the “Leu dissolved at 30 seconds (g/16 oz.)” value is given as 0.649 g/16 oz, the “Leu dissolved at 60 seconds (% of total Leu)” value is given as 36.3 % of total Leu and the “Leu dissolved at 60 seconds (g/16 oz.)” value was found to be 1.27 g/16 oz.

In the case of `O[C@H]1[C@H](O)[C@@H](O)[C@H](O)[C@@H](O)[C@@H]1O` [scyllo-inositol], in series [1], the “Leu dissolved at 30 seconds (g/16 oz.)” value amounted to 0.450 g/16 oz, the “Leu dissolved at 60 seconds (% of total Leu)” value is reported as 24.0 % of total Leu and the “Leu dissolved at 60 seconds (g/16 oz.)” value turned out to be 0.841 g/16 oz.

For `CC[C@H](C)[C@H](N)C(=O)O` [Isoleucine, L-Isoleucine], the “Dissolved amino acid (g per 16 oz.)” value in series [2] (setting [4]) is reported as 0.237 g per 16 oz; in series [2] (setting [5]) it was 0.495 g per 16 oz; in series [2] (setting [6]), 0.504 g per 16 oz; in series [2] (setting [7]), 0.908 g per 16 oz; in series [2] (setting [8]), 0.337 g per 16 oz; in series [2] (setting [9]), 0.714 g per 16 oz. The “Dissolved amino acid (g per 16 oz.)” value came out at 0.416 g per 16 oz in series [2] (setting [10]); 0.791 g per 16 oz in series [2] (setting [11]); 0.546 g per 16 oz in series [2] (setting [12]); 0.972 g per 16 oz in series [2] (setting [13]); 0.978 g per 16 oz in series [3] (myo-inositol 0%, 30 seconds); 1.36 g per 16 oz in series [3] (myo-inositol 0%, 60 seconds). Further, the “Dissolved amino acid (g per 16 oz.)” value in series [3] (myo-inositol 0%, 90 seconds) is 1.50 g per 16 oz; in series [3] (myo-inositol 0%, 240 seconds), 1.71 g per 16 oz; in series [3] (myo-inositol 0%, 600 seconds), 1.74 g per 16 oz; in series [3] (myo-inositol 1%, 30 seconds) it was 1.09 g per 16 oz; in series [3] (myo-inositol 1%, 60 seconds), 1.39 g per 16 oz; in series [3] (myo-inositol 1%, 90 seconds), 1.51 g per 16 oz. The “Dissolved amino acid (g per 16 oz.)” value in series [3] (myo-inositol 1%, 240 seconds) is 1.71 g per 16 oz; in series [3] (myo-inositol 1%, 600 seconds) it was 1.71 g per 16 oz; in series [3] (myo-inositol 2%, 30 seconds), 1.07 g per 16 oz; in series [3] (myo-inositol 2%, 60 seconds) it was 1.33 g per 16 oz; in series [3] (myo-inositol 2%, 90 seconds), 1.46 g per 16 oz; in series [3] (myo-inositol 2%, 240 seconds), 1.66 g per 16 oz. The “Dissolved amino acid (g per 16 oz.)” value came out at 1.70 g per 16 oz in series [3] (myo-inositol 2%, 600 seconds); 1.14 g per 16 oz in series [3] (myo-inositol 4%, 30 seconds); 1.39 g per 16 oz in series [3] (myo-inositol 4%, 60 seconds); 1.52 g per 16 oz in series [3] (myo-inositol 4%, 90 seconds); 1.70 g per 16 oz in series [3] (myo-inositol 4%, 240 seconds); 1.72 g per 16 oz in series [3] (myo-inositol 4%, 600 seconds). In addition, the “Dissolved amino acid (g per 16 oz.)” value in series [3] (myo-inositol 8%, 30 seconds) was 1.09 g per 16 oz; in series [3] (myo-inositol 8%, 60 seconds), 1.38 g per 16 oz; in series [3] (myo-inositol 8%, 90 seconds), 1.48 g per 16 oz; in series [3] (myo-inositol 8%, 240 seconds), 1.72 g per 16 oz; in series [3] (myo-inositol 8%, 600 seconds) it was 1.74 g per 16 oz.

For the molecule `CC(C)[C@H](N)C(=O)O` [Valine, L-Valine], the “Dissolved amino acid (g per 16 oz.)” value in series [2] (setting [4]) is listed as 0.401 g per 16 oz; in series [2] (setting [5]) it was 0.730 g per 16 oz; in series [2] (setting [6]), 0.432 g per 16 oz; in series [2] (setting [7]), 0.690 g per 16 oz; in series [2] (setting [8]), 0.550 g per 16 oz; in series [2] (setting [9]) it was 1.01 g per 16 oz. Further, the “Dissolved amino acid (g per 16 oz.)” value in series [2] (setting [10]) stood at 0.564 g per 16 oz; in series [2] (setting [11]), 0.924 g per 16 oz; in series [2] (setting [12]) it was 0.797 g per 16 oz; in series [2] (setting [13]), 1.29 g per 16 oz; in series [3] (myo-inositol 0%, 30 seconds), 1.30 g per 16 oz; in series [3] (myo-inositol 0%, 60 seconds), 1.54 g per 16 oz. In addition, the “Dissolved amino acid (g per 16 oz.)” value in series [3] (myo-inositol 0%, 90 seconds) is reported as 1.62 g per 16 oz; in series [3] (myo-inositol 0%, 240 seconds), 1.69 g per 16 oz; in series [3] (myo-inositol 0%, 600 seconds) it was 1.70 g per 16 oz; in series [3] (myo-inositol 1%, 30 seconds), 1.39 g per 16 oz; in series [3] (myo-inositol 1%, 60 seconds), 1.59 g per 16 oz; in series [3] (myo-inositol 1%, 90 seconds), 1.65 g per 16 oz. Further, the “Dissolved amino acid (g per 16 oz.)” value in series [3] (myo-inositol 1%, 240 seconds) is 1.72 g per 16 oz; in series [3] (myo-inositol 1%, 600 seconds), 1.72 g per 16 oz; in series [3] (myo-inositol 2%, 30 seconds), 1.38 g per 16 oz; in series [3] (myo-inositol 2%, 60 seconds), 1.55 g per 16 oz; in series [3] (myo-inositol 2%, 90 seconds), 1.63 g per 16 oz; in series [3] (myo-inositol 2%, 240 seconds) it was 1.70 g per 16 oz. Besides, the “Dissolved amino acid (g per 16 oz.)” value in series [3] (myo-inositol 2%, 600 seconds) was found to be 1.70 g per 16 oz; in series [3] (myo-inositol 4%, 30 seconds), 1.44 g per 16 oz; in series [3] (myo-inositol 4%, 60 seconds) it was 1.57 g per 16 oz; in series [3] (myo-inositol 4%, 90 seconds) it was 1.64 g per 16 oz; in series [3] (myo-inositol 4%, 240 seconds) it was 1.70 g per 16 oz; in series [3] (myo-inositol 4%, 600 seconds) it was 1.70 g per 16 oz. Besides, the “Dissolved amino acid (g per 16 oz.)” value in series [3] (myo-inositol 8%, 30 seconds) worked out at 1.36 g per 16 oz; in series [3] (myo-inositol 8%, 60 seconds) it was 1.56 g per 16 oz; in series [3] (myo-inositol 8%, 90 seconds) it was 1.62 g per 16 oz; in series [3] (myo-inositol 8%, 240 seconds), 1.69 g per 16 oz; in series [3] (myo-inositol 8%, 600 seconds), 1.69 g per 16 oz. Further, the “valine/myo-inositol correlation on a molar basis, slope of plot (FIG. 2)” value in series [2] (first material, 30 second time point) is on record as “one valine molecule dissolves for every two molecules of myo-inositol added”.

(Values after US11589603B2, “Powdered nutritional product containing branched-chain amino acids and a sugar alcohol” (Abbott Laboratories, priority 2015, dated 2023).)
